Patent US10131652B2, “Pyrimidinyloxy benzene derivatives as herbicides” (E. I. DU PONT DE NEMOURS AND COMPANY, priority 2014, dated 2018)

What was measured:
Type in all cases: in vivo
[1] = tested on: barnyardgrass (Echinochloa crus-galli); experiment: Test B pre-/postemergence plant response
In short: (§1)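 Steps: plant seeds in loam soil–sand mix; spray soil preemergence, and in parallel spray 2–10 cm one- to two-leaf plants postemergence; hold ~10 days in greenhouse; visually rate injury against untreated controls (0 = no effect, 100 = complete control).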

corn (Zea mays) = experiment: Test B pre-/postemergence plant response
In short: as §1

[2] = tested on: giant foxtail (Setaria faberii); experiment: Test B pre-/postemergence plant response
In short: as §1

[3] = tested on: large (Lg) crabgrass (Digitaria sanguinalis); experiment: Test B pre-/postemergence plant response
In short: as §1

[4] = tested on: morningglory (Ipomoea spp.); experiment: Test B pre-/postemergence plant response
In short: as §1

[5] = tested on: pigweed (Amaranthus retroflexus); experiment: Test B pre-/postemergence plant response
In short: as §1

[6] = tested on: velvetleaf (Abutilon theophrasti); experiment: Test B pre-/postemergence plant response
In short: as §1

[7] = tested on: wheat (Triticum aestivum); experiment: Test B pre-/postemergence plant response
In short: as §1

[8] = tested on: barnyardgrass (Echinochloa crus-galli); experiment: Test C flooded paddy test plant response; conditions: Flood, 250 g ai/ha; scale of 0 to 100 where 0 is no effect and 100 is complete control; 13 to 15 days
In short: (§2)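 Flooded-pot format, 3 cm water over soil maintained for the test duration; test compounds dispensed into the water at the 2-leaf stage. Greenhouse holding 13 to 15 days. Plants evaluated visually relative to untreated controls, 0 meaning no effect and 100 complete control.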

[9] = tested on: ducksalad (Heteranthera limosa); experiment: Test C flooded paddy test plant response; conditions: Flood, 250 g ai/ha; scale of 0 to 100 where 0 is no effect and 100 is complete control; 13 to 15 days
In short: as §2

rice (Oryza sativa) = experiment: Test C flooded paddy test plant response; conditions: Flood, 250 g ai/ha; scale of 0 to 100 where 0 is no effect and 100 is complete control; 13 to 15 days
In short: as §2

[10] = tested on: small-flower umbrella sedge (Cyperus difformis); experiment: Test C flooded paddy test plant response; conditions: Flood, 250 g ai/ha; scale of 0 to 100 where 0 is no effect and 100 is complete control; 13 to 15 days
In short: as §2

[11] = 125 g ai/ha, postemergence, 0 to 100 scale, 0 no effect, 100 complete control
[12] = Postemergence, 500 g ai/ha, 0 to 100 scale (0 no effect, 100 complete control)
[13] = Preemergence, 125 g ai/ha, 0 to 100 scale where 0 is no effect and 100 is complete control
[14] = Preemergence, 500 g ai/ha, 0 to 100 scale where 0 is no effect and 100 is complete control
[15] = Preemergence, 125 g ai/ha, 0 to 100 scale (0 no effect, 100 complete control)
[16] = 500 g ai/ha, postemergence, 0 to 100 scale, 0 no effect, 100 complete control
[17] = Preemergence, 500 g ai/ha, 0 to 100 scale (0 no effect, 100 complete control)

| SMILES | Plant response rating, Barnyardgrass [1, 11] | Plant response rating, Barnyardgrass [1, 12] | Plant response rating, Barnyardgrass [1, 14] | Plant response rating, Corn (corn (Zea mays); [11]) | Plant response rating, Corn (corn (Zea mays); [12]) | Plant response rating, Corn (corn (Zea mays); [14]) | Plant response rating, Foxtail, Giant [2, 11] | Plant response rating, Foxtail, Giant [2, 12] | Plant response rating, Foxtail, Giant [2, 14] | Plant response rating, Crabgrass, Large [3, 11] | Plant response rating, Crabgrass, Large [3, 12] | Plant response rating, Crabgrass, Large [3, 14] | Plant response rating, Morningglory [4, 11] | Plant response rating, Pigweed [5, 11] | Plant response rating, Velvetleaf [6, 11] | Plant response rating, Wheat [7, 11] | Barnyardgrass plant response rating [8] | Ducksalad plant response rating [9] | Rice plant response rating (rice (Oryza sativa)) | Sedge, Umbrella plant response rating [10] | also measured |
| --- | --- | --- | --- | --- | --- | --- | --- | --- | --- | --- | --- | --- | --- | --- | --- | --- | --- | --- | --- | --- | --- |
| FC(F)(F)c1ccc(-c2ccccc2Oc2ncc(Br)cn2)nc1 [Compound 28] | 0 | 50 | 60 | 0 | 20 | 0 | 20 | 40 | 90 | 20 | 40 | 100 | 0 | 30 | 40 | 0 | 0 | 0 | 0 | 0 | Plant response rating, Barnyardgrass [1, 13]: 0; Plant response rating, Corn (corn (Zea mays); [13]): 0; Plant response rating, Foxtail, Giant [2, 13]: 30; Plant response rating, Crabgrass, Large [3, 13]: 40; Plant response rating, Morningglory [4, 12]: 30; Plant response rating, Morningglory [4, 13]: 0; Plant response rating, Morningglory [4, 14]: 0; Plant response rating, Pigweed [5, 12]: 100; Plant response rating, Pigweed [5, 13]: 40; Plant response rating, Pigweed [5, 14]: 80; Plant response rating, Velvetleaf [6, 12]: 100; Plant response rating, Velvetleaf [6, 13]: 0; Plant response rating, Velvetleaf [6, 14]: 60; Plant response rating, Wheat [7, 12]: 0; Plant response rating, Wheat [7, 13]: 0; Plant response rating, Wheat [7, 14]: 0 |
| FC(F)(F)c1ccnc(-c2ccccc2Oc2ncc(Br)cn2)c1 [Compound 26] | 0 | 20 | 30 | 10 | 20 | 0 | 0 | 30 | 90 | 10 | 30 | 100 | 10 | 30 | 10 | 0 | 0 | 0 | 0 | 0 | Plant response rating, Barnyardgrass [1, 13]: 0; Plant response rating, Corn (corn (Zea mays); [13]): 0; Plant response rating, Foxtail, Giant [2, 13]: 0; Plant response rating, Crabgrass, Large [3, 13]: 10; Plant response rating, Morningglory [4, 12]: 50; Plant response rating, Morningglory [4, 13]: 0; Plant response rating, Morningglory [4, 14]: 0; Plant response rating, Pigweed [5, 12]: 80; Plant response rating, Pigweed [5, 13]: 0; Plant response rating, Pigweed [5, 14]: 100; Plant response rating, Velvetleaf [6, 12]: 80; Plant response rating, Velvetleaf [6, 13]: 10; Plant response rating, Velvetleaf [6, 14]: 80; Plant response rating, Wheat [7, 12]: 10; Plant response rating, Wheat [7, 13]: 0; Plant response rating, Wheat [7, 14]: 0 |
| Clc1cnc(Oc2ccccc2-c2nccs2)nc1 [Compound 199] | 0 | 0 | 0 | 0 | 0 | 0 | 0 | 0 | 0 | 0 | 10 | 10 | 0 | 10 | 0 | 0 | 0 | 0 | 0 | 80 | Barnyardgrass plant response rating [1, 15]: 0; Corn plant response rating (corn (Zea mays); [15]): 0; Foxtail, Giant plant response rating [2, 15]: 0; Crabgrass, Large plant response rating [3, 15]: 0; Plant response rating, Morningglory [4, 12]: 10; Morningglory plant response rating [4, 15]: 0; Plant response rating, Morningglory [4, 14]: 0; Plant response rating, Pigweed [5, 12]: 30; Pigweed plant response rating [5, 15]: 0; Plant response rating, Pigweed [5, 14]: 30; Plant response rating, Velvetleaf [6, 12]: 10; Velvetleaf plant response rating [6, 15]: 0; Plant response rating, Velvetleaf [6, 14]: 10; Plant response rating, Wheat [7, 12]: 0; Wheat plant response rating [7, 15]: 0; Plant response rating, Wheat [7, 14]: 0 |
| Clc1ccc(-c2ccc(Br)cc2Oc2ncc(Cl)cn2)nc1 [Compound 203] | 0 |  | 0 | 0 |  | 0 | 0 |  | 0 | 0 |  | 0 | 0 | 0 | 0 | 0 | 0 | 0 | 0 | 0 | Plant response rating, Barnyardgrass [1, 16]: 0; Barnyardgrass plant response rating [1, 15]: 0; Plant response rating, Corn (corn (Zea mays); [16]): 0; Corn plant response rating (corn (Zea mays); [15]): 0; Plant response rating, Foxtail, Giant [2, 16]: 0; Foxtail, Giant plant response rating [2, 15]: 0; Plant response rating, Crabgrass, Large [3, 16]: 0; Crabgrass, Large plant response rating [3, 15]: 0; Plant response rating, Morningglory [4, 16]: 0; Morningglory plant response rating [4, 15]: 0; Plant response rating, Morningglory [4, 14]: 0; Plant response rating, Pigweed [5, 16]: 0; Pigweed plant response rating [5, 15]: 0; Plant response rating, Pigweed [5, 14]: 0; Plant response rating, Velvetleaf [6, 16]: 0; Velvetleaf plant response rating [6, 15]: 0; Plant response rating, Velvetleaf [6, 14]: 0; Plant response rating, Wheat [7, 16]: 0; Wheat plant response rating [7, 15]: 0; Plant response rating, Wheat [7, 14]: 0 |
| FC(F)(F)c1cnc(Oc2ccccc2-c2cncs2)nc1 [Compound 13] | 0 | 0 |  | 0 | 10 |  | 0 | 0 |  | 0 | 10 |  | 0 | 0 | 30 | 0 | 0 | 40 | 0 | 0 | Plant response rating, Barnyardgrass [1, 13]: 0; Plant response rating, Barnyardgrass [1, 17]: 0; Plant response rating, Corn (corn (Zea mays); [13]): 0; Plant response rating, Corn (corn (Zea mays); [17]): 0; Plant response rating, Foxtail, Giant [2, 13]: 0; Plant response rating, Foxtail, Giant [2, 17]: 10; Plant response rating, Crabgrass, Large [3, 13]: 0; Plant response rating, Crabgrass, Large [3, 17]: 10; Plant response rating, Morningglory [4, 12]: 10; Plant response rating, Morningglory [4, 13]: 0; Plant response rating, Morningglory [4, 17]: 0; Plant response rating, Pigweed [5, 12]: 40; Plant response rating, Pigweed [5, 13]: 0; Plant response rating, Pigweed [5, 17]: 80; Plant response rating, Velvetleaf [6, 12]: 60; Plant response rating, Velvetleaf [6, 13]: 0; Plant response rating, Velvetleaf [6, 17]: 10; Plant response rating, Wheat [7, 12]: 0; Plant response rating, Wheat [7, 13]: 0; Plant response rating, Wheat [7, 17]: 0 |
